Experiments:
Format in all cases: cell-based
collagenase = assay: Test for an Activity of Inhibiting Collagenase Expression (MMP-1 ELISA, UVA-irradiated human dermal fibroblasts); conditions: Fibroblast, light or radiation study, 24 h, read-out: inhibitory rate (%) of collagenase expression; for inhibition at 1 µM: concentration 1 μM; for inhibition at 10 µM: concentration 10 μM; for inhibition at 100 µM: concentration 0.1 mM; for inhibition at 1000 µM: concentration 1 mM; for inhibition at 500 µM: concentration 0.5 mM
Procedure: Test for an Activity of Inhibiting Collagenase Expression
(§1) The test compound was added to human dermal fibroblasts which had become confluent in a culture plate. Eighteen hours later, the culture solution was replaced with a phenol red-free medium. The cells were subjected to UV irradiation (UVA; 20 J/cm^2) using Dermaray M-DMR-80 (supplied by Toshiba Iryo Yohin KK). After 24 hours passed, the culture solution was recovered, and the collagenase concentration in the culture solution was measured using MMP-1α·ELISA System (supplied by Amersham Corp.). The rate of inhibition of collagenase expression on the test compound was calculated using formula (VI).
Rate (%) of inhibition of collagenase expression={1−(B4−B6)/(B5−B6)}×100 (VI)
B4: collagenase concentration in the addition of the test compound
B5: collagenase concentration in the non-addition of the test compound
B6: collagenase concentration when the test compound was not added, nor was UV irradiation conducted

NF-κB = assay: Test for an Activity of Inhibiting NF-κB Activation (gel shift assay, UVB-irradiated human epidermal cells); conditions: light or radiation study, read-out: inhibitory rate (%) of NF-κB activation; for inhibition at 10 µM: concentration 10 μM; for inhibition at 100 µM: concentration 100 μM; for inhibition at 1000 µM: concentration 1 mM; for inhibition at 2000 µM: concentration 2 mM; for inhibition at 50 µM: concentration 50 μM
Procedure: Test for an Activity of Inhibiting NF-κB Activation
(§2) Eighteen hours later, the culture solution was replaced with a phenol red-free medium. The cells were subjected to UV irradiation (UVB: 50 mJ/m^2)using Dermaray M-DMR-80 (supplied by Toshiba Iryo Yohin KK). After from 4 to 5 hours passed, the cells were recovered, and the nucleoproteins were extracted in a usual manner. With respect to the resulting nucleoproteins, NF-κB activated by gel shift assay was detected. The amount of NF-κB was determined by measuring a radioactivity of an NF-κB band using a bio-imaging analyzer BAS 2000 (supplied by Fuji Photo Film). The rate of inhibition of NF-κB activation on the test compound was calculated using formula (III).
Rate (%) of inhibition of NF-κB activation={1−(A1−A3)/(A2−A3)}×100 (III)
A1: radioactivity of an NF-κB band in the addition of the test compound
A2: radioactivity of an NF-κB band in the non-addition of the test compound
A3: radioactivity of an NF-κB band when the test compound was not added, nor was UV irradiation conducted

AP-1 = assay: Test for an Activity of Inhibiting AP-1 Activation (gel shift assay, UVA-irradiated human dermal fibroblasts); conditions: AP1, light or radiation study, read-out: inhibitory rate (%) of AP-1 activation; for inhibition at 10 µM: concentration 10 μM; for inhibition at 20 µM: concentration 20 μM; for inhibition at 1 µM: concentration 1 μM; for inhibition at 5 µM: concentration 5 μM; for inhibition at 500 µM: concentration 0.5 mM; for inhibition at 1000 µM: concentration 1 mM
Procedure: Test for an Activity of Inhibiting AP-1 Activation
as §2, with “The test compound was added to human dermal fibroblasts which had become confluent in a culture plate. Eighteen” for “Eighteen”, “(UVA: 20 J/cm^2) using” for “(UVB: 50 mJ/m^2)using”, “AP-1” for “NF-κB”, “(IV).” for “(III).”
Rate (%) of inhibition of AP-1 activation={1−(A4−A6)/(A5−A6)}×100 (IV)
A4: radioactivity of an AP-1 band in the addition of the test compound
A5: radioactivity of an AP-1 band in the non-addition of the test compound
A6: radioactivity of an AP-1 band when the test compound was not added, nor was UV irradiation conducted

IL-1α = assay: Test for an Activity of Inhibiting IL-1α Expression (ELISA, UVB-irradiated human epidermal cells); conditions: light or radiation study, 24 h, read-out: inhibitory rate (%) of IL-1α expression; for inhibition at 10 µM: concentration 10 μM; for inhibition at 50 µM: concentration 50 μM; for inhibition at 100 µM: concentration 100 μM
Procedure: Test for an Activity of Inhibiting IL-1α Expression
as §1, with “epidermal cells” for “dermal fibroblasts”, “(UVB: 50 mJ/cm^2)” for “(UVA; 20 J/cm^2)”, “IL-1α” for “collagenase”, “IL-1α·ELISA” for “MMP-1α·ELISA”, “(V).” for “(VI).”
Rate (%) of inhibition of IL-1α expression={1−(B1−B3)/(B2−B3)}×100 (V)
B1: IL-1α concentration in the addition of the test compound
B2: IL-1α concentration in the non-addition of the test compound
B3: IL-1α concentration when the test compound was not added, nor was UV irradiation conducted

With `CCCCCCCCCCCCNC(=O)[C@H](C)NCc1ccccc1O` [N-(2-hydroxybenzyl)-L-alanine lauryl amide] the inhibition at 1 µM (collagenase) was 57%, the inhibition at 10 µM (NF-κB) was 53% and the inhibition at 20 µM (NF-κB; concentration 20 μM) was 65%. For the same molecule, the inhibition at 10 µM (AP-1) was 57%, the inhibition at 20 µM (AP-1) was 56% and the inhibition at 10 µM (IL-1α) was 69%. For the same molecule, the inhibition at 50 µM (IL-1α) was 73%.
Work on `CCCCCCCCCCCCOC(=O)[C@H](C)NCc1ccccc1O` [N-(2-hydroxybenzyl)-L-alanine lauryl ester] yielded an inhibition at 10 µM (collagenase) of 58%, an inhibition at 10 µM (NF-κB) of 20% and an inhibition at 100 µM (NF-κB) of 81%. The inhibition at 10000 µM (AP-1; concentration 10 mM) was 68%, the inhibition at 10 µM (IL-1α) was 23% and the inhibition at 100 µM (IL-1α) was 72%.
`CCCCCCCCCCCCCCCCCCNC(=O)[C@H](C)NCc1ccccc1O` [N-(2-hydroxybenzyl)-L-alanine stearyl amide] gave an inhibition at 1 µM (collagenase) of 72%, an inhibition at 1 µM (AP-1) of 72% and an inhibition at 5 µM (AP-1) of 47%. It also gave an inhibition at 5 µM (IL-1α; concentration 5 μM) of 30% and an inhibition at 10 µM (IL-1α) of 77%.
With `CCCCCCCCCCCCCCCCCCOC(=O)[C@H](C)NCc1ccccc1O` [N-(2-hydroxybenzyl)-L-alanine stearyl ester] the inhibition at 1 µM (collagenase) was 57%, the inhibition at 10 µM (NF-κB) was 31% and the inhibition at 1 µM (AP-1) was 20%. It also gave an inhibition at 5 µM (AP-1) of 48%, an inhibition at 1 µM (IL-1α; concentration 1 μM) of 25% and an inhibition at 10 µM (IL-1α) of 25%.
`CCCCCCCCCCCCOC(=O)[C@H](CCC(=O)O)NCc1ccccc1O` [N-(2-hydroxybenzyl)-L-glutamic acid lauryl ester] was tested, and the inhibition at 1 µM (collagenase) was 53%, the inhibition at 10 µM (collagenase) was 49% and the inhibition at 100 µM (NF-κB) was 45%. For the same molecule, the inhibition at 10 µM (AP-1) was 33% and the inhibition at 10 µM (IL-1α) was 54%.
Molecule `CCOC(=O)[C@H](Cc1c[nH]cn1)NCc1ccccc1O` [N-(2-hydroxybenzyl)-L-histidine ethyl ester] has an inhibition at 100 µM (collagenase) of 44%, an inhibition at 1000 µM (collagenase) of 51% and an inhibition at 1000 µM (NF-κB) of 69%. For the same molecule, the inhibition at 2000 µM (NF-κB) was 72%, the inhibition at 500 µM (AP-1) was 20% and the inhibition at 1000 µM (AP-1) was 38%.
`CCCCCCCCCCCCNC(=O)[C@H](CC(C)C)NCc1ccccc1O` [N-(2-hydroxybenzyl)-L-leucine lauryl amide] showed an inhibition at 1 µM (collagenase) of 37%, an inhibition at 10 µM (collagenase) of 60% and an inhibition at 10 µM (NF-κB) of 40%. It also gave an inhibition at 50 µM (NF-κB) of 89%, an inhibition at 20 µM (IL-1α; concentration 20 μM) of 27% and an inhibition at 50 µM (IL-1α) of 79%.
`CCNC(=O)[C@H](Cc1ccccc1)NCc1ccccc1O` [N-(2-hydroxybenzyl)-L-phenylalanine ethyl amide] showed an inhibition at 100 µM (collagenase) of 32%, an inhibition at 500 µM (collagenase) of 27% and an inhibition at 500 µM (NF-κB; concentration 0.5 mM) of 102%. For the same molecule, the inhibition at 1000 µM (NF-κB) was 47%, the inhibition at 500 µM (AP-1) was 34% and the inhibition at 1000 µM (AP-1) was 61%.
In the case of `CCCCCCCCCCCCNC(=O)[C@@H]1CCC(=O)N1Cc1ccccc1O` [N-(2-hydroxybenzyl)-L-pyroglutamic acid lauryl amide], the inhibition at 10 µM (collagenase) is reported as 23%, the inhibition at 50 µM (collagenase; concentration 50 μM) is reported as 52% and the inhibition at 50 µM (NF-κB) is reported as 75%. The inhibition at 100 µM (NF-κB) was 74%, the inhibition at 100 µM (AP-1; concentration 100 μM) was 42% and the inhibition at 10 µM (IL-1α) was 25%. The inhibition at 50 µM (IL-1α) was 28%.
With `CCOC(=O)[C@H](CO)NCc1ccccc1O` [N-(2-hydroxybenzyl)-L-serine ethyl ester] the inhibition at 500 µM (collagenase) was 30%, the inhibition at 1000 µM (NF-κB) was 37% and the inhibition at 2000 µM (NF-κB) was 56%. It also gave an inhibition at 1000 µM (AP-1) of 73% and an inhibition at 2000 µM (IL-1α; concentration 2 mM) of 44%.
`CCCCCCCCCCCCNC(=O)[C@H](Cc1ccc(O)cc1)NCc1ccccc1O` [N-(2-hydroxybenzyl)-L-tyrosine lauryl amide] showed an inhibition at 1 µM (collagenase) of 42%, an inhibition at 10 µM (collagenase) of 84% and an inhibition at 10 µM (NF-κB) of 39%. The inhibition at 10 µM (AP-1) was 40%, the inhibition at 20 µM (AP-1) was 55% and the inhibition at 10 µM (IL-1α) was 56%.
`CCCCCCCCCCCCOC(=O)[C@H](Cc1ccc(O)cc1)NCc1ccccc1O` [N-(2-hydroxybenzyl)-L-tyrosine lauryl ester] gave an inhibition at 10 µM (collagenase) of 61%, an inhibition at 5 µM (NF-κB; concentration 5 μM) of 20% and an inhibition at 10 µM (NF-κB) of 43%. It also gave an inhibition at 1 µM (AP-1) of 19% and an inhibition at 10 µM (AP-1) of 45%.
In the case of `CC(=O)Oc1ccccc1C(=O)O` [aspirin, reference compound], the inhibition at 1000 µM (collagenase) is reported as -197%, the inhibition at 1000 µM (AP-1) is reported as -4% and the inhibition at 5000 µM (AP-1; concentration 5 mM) is reported as 14%.
`C[C@@H]1C[C@H]2[C@@H]3CCC4=CC(=O)C=C[C@]4(C)[C@@]3(F)[C@@H](O)C[C@]2(C)[C@@]1(O)C(=O)CO` [dexamethasone, reference compound] was tested, and the inhibition at 1 µM (collagenase) was 27%, the inhibition at 10 µM (collagenase) was 53% and the inhibition at 1 µM (AP-1) was 39%. The inhibition at 10 µM (AP-1) was 34%, the inhibition at 10 µM (IL-1α) was 48% and the inhibition at 100 µM (IL-1α) was 65%.
